From EP0425828A2, “Facteur thymique sérique for prevention and remedy of disorders of decrease in the number of blood corpuscles” (MITSUI TOATSU CHEMICALS, Inc., priority 1989, dated 1991)
Square brackets hold non-standard residues; d marks the D form. Peptide text beside a SMILES is read from it. pGlu = O=C1CC[C@@H](C(=O)O)N1

Columns and labels:
[1] = Effect on mice to which CPA was intraperitoneally administered: body weight; assay type: in vivo, male C3H/HeN mice; details: CPA alone
Procedure: (§1) Several groups each consisting of 10 male C3H/HeN mice of 8 weeks old were prepared. For the first group, 0.2 ml of physiological saline was subcutaneously administered for consecutive 12 days from 2 days before the examination to the 9th day of the examination. For the second group, FTS substance was subcutaneously administered once a day in an amount of 100 iig/0.2 ml for consecutive 12 days. For the third group, CPA was intraperitoneally administered in an amount of 400 mg/kg once on the zero day of the examination. For the fourth group, an administration schedule combining the second group with the third group was applied to the mice. For the fifth group, CPA was intraperitoneally administered in an amount 200 mg/kg once on the zero day of the examination. For the sixth group, an administration schedule combining the second group with the fifth group was applied to the mice. For the seventh group, CPA was intraperitoneally administered in an amount of 100 mg/kg once on the zero day of the examination. For the eighth group, an administration schedule combining the second group with the seventh group to the mice. […]

platelets (PLT) = test: Effect on mice to which CPA was intraperitoneally administered: blood inspection, PLT; assay type: in vivo, male C3H/HeN mice
Procedure: (§2) Several groups each consisting of 10 male C3H/HeN mice of 8 weeks old were prepared. For the first group, 0.2 ml of physiological saline was subcutaneously administered for consecutive 12 days from 2 days before the examination to the 9th day of the examination. For the second group, FTS substance was subcutaneously administered once a day in an amount of 100 iig/0.2 ml for consecutive 12 days. For the third group, CPA was intraperitoneally administered in an amount of 400 mg/kg once on the zero day of the examination. For the fourth group, an administration schedule combining the second group with the third group was applied to the mice. For the fifth group, CPA was intraperitoneally administered in an amount 200 mg/kg once on the zero day of the examination. For the sixth group, an administration schedule combining the second group with the fifth group was applied to the mice. For the seventh group, CPA was intraperitoneally administered in an amount of 100 mg/kg once on the zero day of the examination. For the eighth group, an administration schedule combining the second group with the seventh group to the mice. During the examination, blood was collected by cutting axillary artery on the days of examination (0, 3rd, 5th, 7th, 10th and 14th days) and subjected to a blood inspection to measure the number of leucocytes (WBC), the number of erythrocytes (RBC), the number of reticulocytes (RET), the number of platelets (PLT), the number of hemoglobin (HGB), hematocrit value (HCT), a mean corpuscular volume, a mean corpuscular hemoglobin and a mean corpuscular hemoglobin concentration.

leucocytes (WBC) = test: Effect on mice to which cyclophosphamide (CPA) was intraperitoneally administered: blood inspection, WBC; assay type: in vivo, male C3H/HeN mice; details: for WBC, mean value ± S.D.: 400 mg/kg of CPA alone i.p. once on day zero
Procedure: as §2

reticulocytes (RET) = test: Effect on mice to which CPA was intraperitoneally administered: blood inspection, RET; assay type: in vivo, male C3H/HeN mice
Procedure: as §1

[2] = tested on: leucocytes in peripheral blood; test: Effect on mice to which MMC was intraperitoneally administered: leucocyte count; assay type: in vivo, female ICR/JCL mice; details: MMC alone, 20 µg/0.1 ml i.p. once a day for 10 days
Procedure: Four groups each consisting of 6 female ICR/JCL mice of 5 weeks old were treated as follows: For the first group, 0.1 ml of physiological saline was intraperitoneally administered to the mice for consecutive 12 days. For the second group, FTS substance was subcutaneously administered once a day in an amount of 100 u.g for consecutive 12 days. For the third group, MMC was intraperitoneally administered once a day in an amount of 20 µg/0.1 ml for 10 days from the zero day to the 9th day of the experiment. For the fourth group, FTS substance was subcutaneously administered to the mice once a day in an amount of 100 µg for consecutive 12 days from 2 days before the administration of MMC, and for 10 days from the […] after the administration of FTS substance MMC was intraperitoneally administered once a day in an amount of 20 u.g/0.1 ml. After the administration of the anti-cancer agent, blood was collected on alternate days from oculus vein and the numbr of leucocytes in the blood was counted.

ddy strain male mice = test: Toxicity test in mice, repeated subcutaneous administration; assay type: in vivo; details: for toxicity: five ddy strain male mice of 5 weeks old
Excerpt: (§3) Thus, the medicament of the present invention is a safe medicament of extremely low toxicity and can be administered for a long period of time.

Wistar rats = test: Toxicity test in rats, repeated subcutaneous administration; assay type: in vivo; details: 30 mg/kg s.c. for consecutive 21 days
Excerpt: as §3

[3] = 7th day, 400mg/kg of CPA alone i.p. once on day zero

O=P1(N(CCCl)CCCl)NCCCO1 (stereo not drawn) [CPA, cyclophosphamide]
body weight change [1]: decrease in body weight
PLT change (platelets (PLT); 400 mg/kg and 200 mg/kg of CPA, 7th day the minimum, recovered to the normal range on the 10th day): PLT was decreased
PLT (platelets (PLT); 5th day, 400 mg/kg of CPA alone i.p. once on day zero): 357±82 x 10^3/mm^3
PLT (platelets (PLT); [3]): 214±73 x 10^3/mm^3
WBC, mean value ± S.D. (leucocytes (WBC); 3rd day): 11.6±2.1 x 10^2/mm^3
WBC, mean value ± S.D. (leucocytes (WBC); 5th day): 4.2±1.0 x 10^2/mm^3
WBC change (leucocytes (WBC); CPA alone 400 mg/kg, 200 mg/kg or 100 mg/kg, 3rd, 5th and 7th day, 5th day the minimum): considerably decreased
RET (reticulocytes (RET); [3]): 27.2±5.0 0/00
RET change (reticulocytes (RET); CPA administered, 5th day the minimum): RET was decreased

CO[C@@]12[C@H](COC(N)=O)C3=C(C(=O)C(C)=C(N)C3=O)N1C[C@@H]1N[C@@H]12 [MMC, mitomycine C]
number of leucocytes, lowest level as % of the maximum normal range [2]: about 40%

C[C@H](NC(=O)[C@@H]1CCC(=O)N1)C(=O)N[C@@H](CCCCN)C(=O)N[C@@H](CO)C(=O)N[C@@H](CCC(N)=O)C(=O)NCC(=O)NCC(=O)N[C@@H](CO)C(=O)N[C@@H](CC(N)=O)C(=O)O [effective ingredient, pGlu-Ala-Lys-Ser-Gln-Gly-Gly-Ser-Asn] ([pGlu]AKSQGGSN-OH)
toxicity (ddy strain male mice; 50 mg/kg s.c. for consecutive 14 days): No toxicity was observed
abnormal symptoms by external check (ddy strain male mice; 100 mg/kg s.c. every day for consecutive 14 days, mice): no abnormal symptom was found
toxicity (ddy strain male mice; 100mg/kg s.c. for consecutive 14 days): No toxicity was observed
abnormal symptoms in external behavior observation, biochemical diagnosis of sera and pathological anatomy (Wistar rats; rats): no abnormal symptom was found
toxicity (Wistar rats; ten Wistar rats of 5 weeks old): No toxicity was observed
